According to US9365583B2, “Substituted pyrazoles and uses thereof” (Genentech, Inc., priority 2013, dated 2016):

Molecular target: T1, N-terminally GST-tagged DLK (catalytic domain amino acid 1-520) (Homo sapiens, UniProt Q12852)
T1 construct: N-terminally GST-tagged DLK (catalytic domain amino acid 1-520); purchased Carna Bioscience
T1 sequence (Q12852 1-520): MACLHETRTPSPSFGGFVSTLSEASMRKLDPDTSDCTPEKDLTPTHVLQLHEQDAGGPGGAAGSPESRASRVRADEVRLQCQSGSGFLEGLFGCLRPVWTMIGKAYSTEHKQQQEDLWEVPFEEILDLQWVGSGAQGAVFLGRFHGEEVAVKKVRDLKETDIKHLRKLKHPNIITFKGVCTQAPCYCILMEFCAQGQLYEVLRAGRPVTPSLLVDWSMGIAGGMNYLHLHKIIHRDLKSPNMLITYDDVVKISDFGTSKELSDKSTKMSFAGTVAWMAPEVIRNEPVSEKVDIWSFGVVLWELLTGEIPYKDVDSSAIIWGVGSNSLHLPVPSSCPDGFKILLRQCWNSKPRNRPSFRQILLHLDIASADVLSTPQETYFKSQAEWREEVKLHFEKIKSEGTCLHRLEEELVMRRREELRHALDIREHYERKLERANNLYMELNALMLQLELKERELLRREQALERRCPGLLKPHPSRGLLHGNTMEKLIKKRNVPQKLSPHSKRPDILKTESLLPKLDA
Assay: DLK TR-FRET inhibition assay
Assay type: biochemical
Settings: 5 nM GST-DLK, 40 nM HIS-MKK4 K131M substrate, 30 μM ATP, 60 minutes at ambient temperature
Outline: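 5 nM GST-DLK (aa 1-520), 40 nM HIS-MKK4 K131M and 30 μM ATP reacted 60 min at ambient temperature in HEPES pH 7.5 buffer with 10 mM MgCl2, compound 1:3 serially diluted from 20 uM. TR-FRET detection of phospho-MKK4 used Eu-cryptate anti-phospho-MKK4 plus D2 anti-HIS, read after 3 h (665/615 nm).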

SMILES	Ki
COC1CCN([C@@H]2C[C@@H]3[C@H](C2)[C@H]3c2cc(-c3cnc(N)c(OC(F)(F)F)c3)nn2C(C)C)CC1 [compound 246, 5-(1-isopropyl-5-((1R,3s,5S,6r)-3-(4-methoxypiperidin-1-yl)bicyclo[3.1.0]hexan-6-yl)-1H-pyrazol-3-yl)-3-(trifluoromethoxy) pyridin-2-amine]	1.8 nM
CO[C@H]1C[C@@H]2[C@H](C1)[C@H]2c1cc(-c2cnc(N)c(OC(F)F)c2)nn1C(C)C [compound 187, 3-(difluoromethoxy)-5-(1-isopropyl-5-((1R,3r,5S,6r)-3-methoxy-bicyclo[3.1.0]hexan-6-yl)-1H-pyrazol-3-yl)pyridin-2-amine]	2.2 nM
CC(C)n1nc(-c2cnc(N)c(OC(F)F)c2)cc1[C@H]1[C@@H]2C[C@@H](N3CCCOCC3)C[C@@H]21 [compound 87, 5-(5-((1R,3s,5S,6r)-3-(1,4-oxazepan-4-yl)bicyclo[3.1.0]hexan-6-yl)-1-isopropyl-1H-pyrazol-3-yl)-3-(difluoromethoxy)pyridin-2-amine]	0.64 nM
CC(C)n1nc(-c2cnc(N)c(C(F)(F)F)c2)cc1[C@@H]1[C@@H]2C[C@@H](O)C[C@@H]21 [compound 122, (1R,3s,5S,6s)-6-(3-(6-amino-5-(trifluoromethyl)pyridin-3-yl)-1-isopropyl-1H-pyrazol-5-yl) bicyclo[3.1.0]hexan-3-ol]	> 321 nM
CO[C@H]1CCN([C@@H]2C[C@@H]3[C@H](C2)[C@H]3c2cc(-c3cnc(N)c(OC(F)F)c3)nn2C(C)C)C1 [compound 215, 3-(difluoromethoxy)-5-(1-isopropyl-5-((1R,3s,5S,6S)-3-((S)-3-methoxypyrrolidin-1-yl)bicyclo [3.1.0]hexan-6-yl)-1H-pyrazol-3-yl)pyridin-2-amine]	1.4 nM
CC(C)n1nc(-c2cnc(N)c(OC(F)(F)F)c2)cc1[C@H]1[C@@H]2C[C@@H](N3C[C@@H]4C[C@H]3CO4)C[C@@H]21 [compound 164, 5-(5-((1R,3s,5S,6S)-3-((1S,4S)-2-oxa-5-azabicyclo[2.2.1]heptan-5-yl)bicyclo[3.1.0]hexan-6-yl)-1-isopropyl-1H-pyrazol-3-yl)-3-(trifluoromethoxy)pyridin-2-amine]	3.3 nM
CC(C)n1nc(-c2cnc(N)c(OC(F)F)c2)cc1[C@H]1[C@@H]2C[C@@H](N3C[C@@H](F)[C@@H](F)C3)C[C@@H]21 [compound 119, 3-(difluoromethoxy)-5-(5-((1R, 3s,5S,6R)-3-((3S,4R)-3,4-difluoro-pyrrolidin-1-yl)bicyclo[3.1.0]hexan-6-yl)-1-isopropyl-1H-pyrazol-3-yl)pyridin-2-amine]	6.64 nM
CC(C)n1nc(-c2cnc(N)c(OC(F)(F)F)c2)cc1[C@H]1[C@@H]2C[C@@H](N3CCOCC3)C[C@@H]21 [compound 68, 5-(1-isopropyl-5-((1R,3s,5S,6r)-3-morpholinobicyclo[3.1.0]hexan-6-yl)-1H-pyrazol-3-yl)-3-(trifluoromethoxy)pyridin-2-amine]	1.2 nM
CC(C)n1nc(-c2cnc(N)c(C(F)(F)F)c2)cc1[C@H]1[C@@H]2C[C@H](N3CCN(C)C[C@@H]3C)C[C@@H]21 [compound 242, 5-(5-((1R,3r,5S,6S)-3-((S)-2,4-dimethylpiperazin-1-yl)bicyclo [3.1.0]hexan-6-yl)-1-isopropyl-1H-pyrazol-3-yl)-3-(trifluoromethyl) pyridin-2-amine]	2.1 nM
CC(C)n1nc(-c2cnc(N)c(OC(F)(F)F)c2)cc1[C@H]1[C@@H]2C[C@@H](N(C)C3COC3)C[C@@H]21 [compound 48, 5-(1-isopropyl-5-((1R,3s,5S,6r)-3-(methyl(oxetan-3-yl)amino)bicyclo[3.1,0]hexan-6-yl)-1H-pyrazol-3-yl)-3-(trifluoromethoxy) pyridin-2-amine]	3.1 nM
CC(C)n1nc(-c2cnc(N)c(OC(F)F)c2)cc1[C@H]1[C@@H]2C[C@H](OCC(C)(C)O)C[C@@H]21 [compound 168, 1-(((1R,3r,5S,6r)-6-(3-(6-ammo-5-(difluoromethoxy)pyridin-3-yl)-1-isopropyl-1H-pyrazol-5-yl)bicyclo[3.1.0]hexan-3-yl)oxy)-2-methylpropan-2-ol]	2.7 nM
CC(C)n1nc(-c2cnc(N)c(C(F)(F)F)c2)cc1[C@H]1[C@@H]2C[C@@H](N3CCN(CC(F)F)CC3)C[C@@H]21 [compound 266]	1.1 nM
CO[C@H]1CCN([C@@H]2C[C@@H]3[C@H](C2)[C@H]3c2cc(-c3cnc(N)c(OC(F)F)c3)nn2CC2CC2)C1 [compound 159, 5-(1-(cyclopropylmethyl)-5-((1R,3s,5S,6S)-3-((S)-3-methoxy-pyrrolidin-l-yl)bicyclo[3.1.0]hexan-6-yl)-1H-pyrazol-3-yl)-3-(difluoromethoxy)pyridin-2-amine]	1.9 nM
CC(C)n1nc(-c2cnc(N)c(OC(F)F)c2)cc1[C@@H]1[C@@H]2C[C@@H](O)C[C@@H]21 [compound 123, (1R,3s,5S,6s)-6-(3-(6-amino-5-(difluoromethoxy)pyridin-3-yl)-1-isopropyl-1H-pyrazol-5-yl) bicyclo[3.1.0]hexan-3-ol]	> 321 nM
CC(C)n1nc(-c2cnc(N)c(C(F)(F)F)c2)cc1[C@H]1[C@@H]2C[C@H](N3CCOCC3)C[C@@H]21 [compound 52, 5-(1-isopropyl-5-((1R,3r,5S,6r)-3-morpholinobicyclo[3.1.0]hexan-6-yl)-1H-pyrazol-3-yl)-3-(trifluoromethyl)pyridin-2-amine]	3.97 nM
CC(C)n1nc(-c2cnc(N)c(C(F)(F)F)c2)cc1[C@H]1[C@@H]2CC(N3CC4COCC4C3)C[C@@H]21 (single isomer, unassigned) [compound 270]	2.8 nM
COCCO[C@@H]1C[C@@H]2[C@H](C1)[C@H]2c1cc(-c2cnc(N)c(C(F)(F)F)c2)nn1C(C)C [compound 275, 5-(1-isopropyl-5-((1R,3s,5S,6r)-3-(2-methoxyethoxy)bicyclo [3.1.0]hexan-6-yl)-1H-pyrazol-3-yl)-3-(trifluoromethyl)pyridin-2-amine]	4.7 nM
Nc1ncc(-c2cc([C@H]3[C@@H]4C[C@@H](N5CCCOCC5)C[C@@H]43)n(CC(F)F)n2)cc1C(F)(F)F [compound 135, 5-(5-((1R,3s,5S,6r)-3-(1,4-oxazepan-4-yl)bicyclo[3.1.0]hexan-6-yl)-1-(2,2-difluoroethyl)-1H-pyrazol-3-yl)-3-(trifluoromethyl) pyridin-2-amine]	5.57 nM
CC(C)n1nc(-c2cnc(N)c(OC(F)(F)F)c2)cc1[C@H]1[C@@H]2C[C@H](N(C)C3COC3)C[C@@H]21 [compound 47, 5-(1-isopropyl-5-((1R,3r,5S,6r)-3-(methyl(oxetan-3-yl)amino)bicyclo[3.1.0]hexan-6-yl)-1H-pyrazol-3-yl)-3-(trifluoromethoxy) pyridin-2-amine]	4.11 nM
COCC1(F)CCN(C2C[C@@H]3C(c4cc(-c5cnc(N)c(OC(F)F)c5)nn4C(C)C)[C@@H]3C2)C1 (single isomer, unassigned) [compound 174]	5.2 nM
CC(C)n1nc(-c2cnc(N)c(C(F)(F)F)c2)cc1[C@H]1[C@@H]2C[C@@H](N3CCN(C)CC3)C[C@@H]21 [compound 67, 5-(1-isopropyl-5-((1R,3s,5S,6r)-3-(4-methylpiperazin-1-yl)bicyclo [3.1.0]hexan-6-yl)-1H-pyrazol-3-yl)-3-(trifluoromethyl)pyridin-2-amine]	3.93 nM
CC(C)n1nc(-c2cnc(N)c(C(F)(F)F)c2)cc1[C@H]1[C@@H]2C[C@@H](N3C[C@@H]4C[C@H]3CO4)C[C@@H]21 [compound 167, 5-(5-((1R,3s,5S,6S)-3-((1S,4S)-2-oxa-5-azabicyclo[2.2.1]heptan-5-yl)bicyclo[3.1.0]hexan-6-yl)-1-isopropyl-1H-pyrazol-3-yl)-3-(trifluoromethyl)pyridin-2-amine]	1.4 nM
CC(C)n1nc(-c2cnc(N)c(OC(F)(F)F)c2)cc1[C@H]1[C@@H]2C[C@H](N3C[C@@H]4C[C@H]3CN4C)C[C@@H]21 [compound 201, 5-(1-isopropyl-5-((1R,3r,5S,6S)-3-((1S,4S)-5-methyl-2,5-diazabicyclo [2.2.1]heptan-2-yl)bicyclo [3.1.0]hexan-6-yl)-1H-pyrazol-3-yl)-3-(trifluoromethoxy) pyridin-2-amine]	1.3 nM
CC(C)n1nc(-c2cnc(N)c(C(F)(F)F)c2)cc1[C@H]1[C@@H]2C[C@H](N3CC(F)(F)C3)C[C@@H]21 [compound 54, 5-(5-((1R,3r,5S,6r)-3-(3,3-difluoro-azetidin-1-yl)bicyclo[3.1.0]hexan-6-yl)-1-isopropyl-1H-pyrazol-3-yl)-3-(trifluoromethyl) pyridin-2-amine]	7.68 nM
CC(C)n1nc(-c2cnc(N)c(OC(F)F)c2)cc1[C@H]1[C@@H]2C[C@@H](N3CC[C@H](F)C3)C[C@@H]21 [compound 289, 3-(difluoromethoxy)-5-(5-((1R,3s,5S,6S)-3-((S)-3-fluoropyrrolidin-1-yl)bicyclo[3.1.0]hexan-6-yl)-1-isopropyl-1H-pyrazol-3-yl) pyridin-2-amine]	4.4 nM
